Results from US20210161894A1, “Compositions and Methods for Modulating Liver Endothelial Cell Fenestrations” (priority 2017, published 2021).
“Also recorded” adds a separate entry of the source.

What was measured:
[1] = test system: fenestrations; conditions: young mice; cited from earlier work
[2] = test system: LSEC fenestrations; experiment: SEM of LSEC fenestrations after drug treatments (Example 2, FIGS. 1-6); type: cell-based, mice; conditions: for change in fenestration porosity / change in fenestration frequency: Cytochalasin D 0.5 μg/ml, Amlodipine 20 ng/ml; for sieve plates and fenestration density on SEM images: young and old mice
Excerpt: Young and old C57B16 mice (n=3 young mice, age 3-4 and n=3 old mice, 20-24 months) were maintained under full SPF conditions and with ad libitum feeding. The study had the approval of the Sydney South West Area Health Service Animal Welfare Committee. Mice at 20-24 months are senescent. Animals were sacrificed withCO2 and livers immediately perfusion-fixed via a 23G needle inserted into the portal vein. Liver tissue was fixed with1% glutaraldehyde/4% para-formaldehyde in PBS (0.1M sucrose).
Drug treatments and dosages (shown superimposed on their corresponding image in FIGS. 1, and 2) were performed by incubating liver cells at 37° C., 5% CO2 for 30 mins using RPMI with or without dissolved drug. All images were taken by two blinded researchers using a SEM at 10,000×, scale bars of 1 μm are shown.
Each data point represents the average±SD of 8 images (as shown in FIGS. 1 and 2), 616-3312 fenestration raw data points were collected per treatment.

[3] = test system: actin cytoskeleton of LSECs; experiment: dSTORM imaging of the actin cytoskeleton; type: cell-based; conditions: young mice
Description: dSTORM imaging was performed using an in-house microscope. LSECs were prepared for dSTORM by washing twice with PBS and fixation with 4% paraformaldehyde for 30 mins. Then LSECs were washed twice with PBS, permeabilised with Triton-X for 90 secs, blocked with 5% bovine serum albumin for 1 hour, and stained with Alexa Flour phalloidin 488 (1:40) for 20 min prior to imaging. Cells were washed using PBS with 0.1% Tween and placed in OxEA buffer (30) for dSTORM visualisation and image capture. The dSTORM used 488 and 647 nm excitation from diode-pumped lasers (Coherent Inc, CA, USA). Excitation was delivered via a 1.49NA 60× oil-immersion TIRF objective (Olympus Australia, AUS). Fluorescence was captured on two separate sCMOS cameras (Imaging Development Systems GmbH, Germany). Data was collected for up to 40,000 images at around 75 fps. 5-8 whole cell images were collected by a blinded observer for each treatment dosage and processed using rapidSTORM open source software (Wolter et al. Nat Methods 9: 1040, 2012.). Each image was examined for all sieve plates and actin structures. Densitometry measurements were performed using 5-8 dSTORM images with data analysis performed using Image J software (NIH, MD, USA).

[4] = test system: lipid rafts and fenestrations of LSECs; experiment: 3D-SIM study of lipid rafts and fenestrations; type: cell-based
Excerpt: Sieve plates containing fenestrations are intercalated between thickened areas of membrane (lipid rafts).

[5] = test system: isolated LSECs (liver sinusoidal endothelial cells); experiment: SEM of fenestrations in isolated LSECs from young and old mice after 30 min drug treatment (second Example 7); type: cell-based; conditions: for Diameter / Frequency / Porosity: 30 min; for effect on porosity and fenestration frequency (summary in words): young and old LSECs
Description: 3-4 and 18-24 month old male C57/B16 mice were obtained from the Animal Resource Centre in Perth, Western Australia. Animals were housed at the ANZAC Research Institute animal house on a 12 hour light/dark cycle and provided with ad libitum access to food and water. Mice were not fasted prior to euthanasia by a single intraperitoneal injection with 100 mg/kg ketamine and 10 mg/kg xylazine in saline. The study was approved by the Animal Welfare Committee of the Sydney Local Health District and was performed in accordance with the Australian Code of Practice for the care and use of animals for scientific research (AWC 2016/009). All information provided accords with the ARRIVE guidelines.
As described previously (Cogger et al. J e52698, 2015 https://dx.doi.org/10.3791/52698), mouse LSEC isolation was performed by perfusion of the liver with collagenase. Non-parenchymal cells were removed by a two-step Percoll gradient and Kupffer cells were removed by selective adherence to plastic. LSECs (seeded at 0.5×10^6 cells/cm2) were cultured (37° C., 5% CO2) in serum free RPMI-1640 for 3.5 hours before use.
Cells were treated with various agents for 30 minutes to determine effects on fenestrations. All agents were dissolved in serum-free RPMI media. All experiments were performed in triplicate for both young and old mice. Actin was disrupted with 0.5 μg/ml cytochalasin D and lipid rafts were disrupted with 3.6 and 1.8 μg/ml 7-keocholesterol; dosages were selected. […] The serotonergic/phospholipase C pathway was promoted with DOI (0.1 μg/ml) and endothelin receptors were inhibited by bosentan (550, 55 and 5.5 ng/ml) Death receptor 4 was promoted with TRAIL (100, 10. 1, 0.1 and 0.01 ng/ml) and NAD+ was promoted with NMN (5000, 50, 10, 1 and 0.1 μg/ml).
SEM was performed as previous described (Corbin et al J Biol Chem 274: 13729-13732, 1999.). LSECs were fixed in 2.5% glutaraldehyde in 0.1M sodium cacodylate buffer, osmicated, dehydrated in graded ethanol and hexamethyl disilazane, mounted on stubs, sputter coated with platinum and examined using a JEOL 6380 Scanning Electron Microscope (JEOL Ltd, Japan). Images at 10,000× magnification were collected by a blinded observer and used to measure fenestration diameter and LSEC porosity using Image J (NIH, MD, USA). […] Fenestrations less than 30 nm and gaps more than 300 nm were excluded from analysis. Porosity was defined as the percentage of the cell membrane covered with fenestrations. Frequency was defined at the number of fenestrations per […].
Individual specifications of analyses are described in figures legends. All data are presented as mean±SD. Experimental design and analysis were performed in accordance with the APS guidelines described in Curran-Everett and Benos DJ. Adv Physiol Educ 31: 295-298, 2007.

[6] = test system: LSEC fenestrations; experiment: Acute defenestration by a single intraperitoneal injection of P407; type: in vivo
Excerpt: Acute loss of fenestrations, in the absence of other ageing changes, causes dyslipidaemia and insulin resistance Ageing is a complex process leading to impairment of many cellular pathways. To test the hypothesis that age-related loss of fenestrations contributes to dyslipidaemia and insulin resistance, the inventors aimed to evaluate the impact of acute defenestration in the absence of other ageing changes. […] P407 administration caused a 10-fold increase in circulating lipoproteins, especially triglycerides and chylomicron remnants, while preventing the transfer of small chylomicrons across the LSEC.

[7] = old mice, DOI 0.1 μg/ml, 7KC 9 μM
[8] = old mice, DOI 0.1 μg/ml, 7KC 9 μM, Bosentan 0.1 μM, Sildenafil 300 ng/ml
[9] = young mice, DOI 0.1 μg/ml, 7KC 9 μM

What does the source list for C=C1[C@@H](C)[C@H]2[C@H](Cc3ccccc3)NC(=O)[C@]23[C@H](OC(C)=O)/C=C/[C@@](C)(O)C(=O)[C@@H](C)C/C=C/[C@H]3[C@@H]1O [Cytochalasin D, cytochalasin D]?
fenestration porosity and diameter (previously reported) [1]: increase fenestration porosity in young mice without any significant effects on fenestration diameter; sieve plate grouping on SEM images ([2]; old mice): greater fenestration sieve plate grouping; change in fenestration porosity [2, 7]: increased porosity; change in fenestration frequency [2, 8]: increased; sieve plates and fenestration density on SEM images [2]: promoted increased fenestration density and maintained sieve plate fenestration clustering; change in fenestration frequency ([2]; young mice, Bosentan 0.1 μM, Sildenafil 300 ng/ml): increased; change in fenestration porosity [2, 9]: increased porosity; actin changes with drug treatments (dSTORM) [3]: Disordered actin structure; also recorded: Dense actin plasma membrane; also recorded: Stress fibres; also recorded: Single isolated fenestrations; actin changes with drug treatments (dSTORM) ([3]; listed as cytochalasin D): extensive actin staining of the plasma membrane; also recorded: loss of smooth fibres encircling the cytoplasm; effect on fenestrations and lipid rafts [4]: increased fenestrations and decreased rafts; fenestrations in LSECs from old mice ([5]; old mice): increased fenestrations; Diameter ([5]; old mice, 0.5 μg/ml): 117.04 ± 9.26 nm; Frequency ([5]; old mice, 0.5 μg/ml): 3.39 ± 1.07 no/area; Porosity ([5]; old mice, 0.5 μg/ml): 3.82 ± 1.01%; effect on porosity and fenestration frequency (summary in words) [5]: significantly increased frequency but not porosity in young and old LSECs; Change in Porosity, Young ([5]; young mice, 0.5 μg/ml): ↑ (ns); Diameter ([5]; young mice, 0.5 μg/ml): 126.78 ± 10.68 nm; Frequency ([5]; young mice, 0.5 μg/ml): 4.57 ± 0.51 no/area; Porosity ([5]; young mice, 0.5 μg/ml): 6.05 ± 0.62 %; increase in porosity ([5]; young mice, not significant (P=0.08)): 33%

With poloxamer 407 [P407] as the molecule, how does the “increase in circulating lipoproteins” value ([6]; especially triglycerides and chylomicron remnants) read?
The value was 10 fold.

And the “passage of insulin across the LSEC” value ([6]; in vivo)?
Its value is “prevented the passage of insulin across the LSEC”.

What about the loss of fenestrations ([6]; within 24 hours of a single intraperitoneal injection) of the same molecule?
The loss of fenestrations was 30-80%.

What does the source list for CC(C)CCC[C@@H](C)[C@H]1CC[C@H]2[C@@H]3C(=O)C=C4C[C@@H](O)CC[C@]4(C)[C@H]3CC[C@]12C [7-ketocholesterol]?
fenestration porosity and diameter (previously reported) [1]: increase fenestration porosity in young mice without any significant effects on fenestration diameter; diameter of fenestrations observed on SEM images [2]: Increased diameter of fenestrations; change in fenestration diameter ([2]; old mice, 7KC 4.5 μM, Bosentan 0.1 μM, Sildenafil 300 ng/ml, TRAIL 1 μg/ml): Increased fenestration diameter; change in fenestration porosity [2, 7]: increased porosity; change in fenestration frequency [2, 8]: increased; sieve plates and fenestration density on SEM images [2]: promoted increased fenestrations but limited clearly definable sieve plates; change in fenestration porosity [2, 9]: increased porosity; effect on fenestrations and lipid rafts [4]: increased fenestrations and decreased rafts; gap formation [5]: Gap formation was apparent; increase in fenestration diameter [5]: 15 nm; fenestrations in LSECs from old mice ([5]; old mice): increased fenestrations; Diameter ([5]; old mice, 1.8 μg/ml): 154.41 ± 13.07 nm; Frequency ([5]; old mice, 1.8 μg/ml): 2.65 ± 0.94 no/area; Porosity ([5]; old mice, 1.8 μg/ml): 5.19 ± 0.95 %; Diameter ([5]; old mice, 3.6 μg/ml): 139.46 ± 17.45 nm; Frequency ([5]; old mice, 3.6 μg/ml): 3.15 ± 0.08 no/area; Porosity ([5]; old mice, 3.6 μg/ml): 5.34 ± 1.17 %; effect on porosity and fenestration frequency (summary in words) [5]: significant increases in porosity and fenestration frequency in both young and old LSECs; fenestration diameter ([5]; young and old mice, P<0.05): increased fenestration diameter in both young and old mice; Diameter ([5]; young mice, 1.8 μg/ml): 142.35 ± 8.02 nm; Frequency ([5]; young mice, 1.8 μg/ml): 3.59 ± 0.78 no/area; Porosity ([5]; young mice, 1.8 μg/ml): 6.10 ± 1.82%; Diameter ([5]; young mice, 3.6 μg/ml): 148.59 ± 7.70 nm; Frequency ([5]; young mice, 3.6 μg/ml): 4.36 ± 0.93 no/area; Porosity ([5]; young mice, 3.6 μg/ml): 8.03 ± 1.37 %; shift in frequency distribution of fenestration diameter ([5]; young mice, NMN 5000 μg/ml, 7-ketocholesterol 3.6 μg/ml): decreased 30-125 nm diameter fenestrations and an increase in 150-3000 sized fenestrations
